Test results as given in US20160220523A1 (GEORGETOWN UNIVERSITY, priority 2013, published 2016).

How the values were obtained:
Format in all cases: cell-based, murine
[1] = test system: PGC-1α; test: PGC-1α expression in LPS-treated BV2 cells (RT-PCR); conditions: GW6471 0.25-2 μM 0.5 hrs, 20 μM fenofibrate 18 hrs, 100 ng/mL LPS 4 hrs
Experimental: (§1) PGC-1α expression was determined by RT-PCR.
(§2) Then the cells were treated with 100 ng/mL LPS for 4 hrs. […] (**p<0.01 vs. control; ##p<0.001 vs. LPS).
(§3) MN9D cells were cultured in Dulbecco's Modified Eagle Medium (DMEM) supplemented with 10% fetal bovine serum, and 3.7 g/L sodium bicarbonate at 37° C., 5% carbon dioxide. BV-2 cells (murine microglia) were maintained in DMEM supplemented with 10% fetal bovine serum and antibiotics (penicillin, 100 U/mL, streptomycin […]). Antibiotics were omitted for the fenofibrate evaluation study.

[2] = test system: IL-1β; test: LPS-induced IL-1β expression in BV2 cells (RT-PCR)
Experimental: as §1, §2
(§4) Cell lysate was collected for Western blotting analysis.
as §3
(§5) AMPK is an energy sensor and can phosphorylate PGC-1α. It is plausible that AMPK phosphorylates PGC-1α and that PGC-1α then acts through positive feedback, binding to myocyte enhancer factor (MEF)-binding site to increase its own gene expression.

[3] = test system: AMPK; test: AMPK phosphorylation in BV2 cells (Western blot); conditions: compound C 0.5 hour, then fenofibrate 1 hour
Experimental: as §4
BV-2 cells (murine microglia) were maintained in Dulbecco's Modified Eagle Medium supplemented with 10% fetal bovine serum and antibiotics (penicillin, 100 U/mL, streptomycin 100 μg/mL). Antibiotics were omitted for the fenofibrate evaluation study.
as §5

| SMILES | effect on fenofibrate mediated PGC-1α upregulation [1] | effect on fenofibrate mediated anti-inflammatory effects (IL-1β mRNA) ([2]; GW6471 0.25-2 μM 0.5 hrs, 20 μM fenofibrate 18 hrs, 100 ng/mL LPS 4 hrs) | effect on fenofibrate mediated anti-inflammation (IL-1β gene expression) ([2]; Compound C 0.5 hour, then fenofibrate overnight, LPS) | AMPK phosphorylation under fenofibrate [3] |
| --- | --- | --- | --- | --- |
| CCC(=O)NC[C@H](Cc1ccc(OCCc2nc(-c3ccccc3)oc2C)cc1)N/C(C)=C\C(=O)c1ccc(C(F)(F)F)cc1 [GW6471] | fails to suppress | fails to suppress | – | – |
| c1cc(-c2cnn3cc(-c4ccc(OCCN5CCCCC5)cc4)cnc23)ccn1 [compound C] | – | – | weakened the anti-inflammatory effects of fenofibrate | concentration-dependent inhibitory effect |
